Patent US20230085307A1, “PYRIDAZINONE COMPOUND AND HERBICIDE” (NISSAN CHEMICAL CORPORATION, priority 2019, published 2023)

Legend:
late watergrass [1] = assay: Test Example 1: herbicidal activity, application before weed generation under submerged conditions (Table 16, symbol A); format: in vivo, late watergrass (Echinochloa oryzicola); details: 320 g/ha applied herbicide
Summary of the method: (§1)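 Alluvial soil was flooded to 4 cm depth, weed seeds were sown mixed and 2.5-leaf rice seedlings were transplanted. On sowing day, the compound's emulsion, diluted in water to a set dose, was applied to the water surface. Plants grew at 25–30 °C and were scored 0–5 after three weeks.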

Japanese bulrush [2] = assay: Test Example 1: herbicidal activity, application before weed generation under submerged conditions (Table 16, symbol B); format: in vivo, Japanese bulrush (Schoenoplectus juncoides); details: 320 g/ha applied herbicide
Summary of the method: as §1

oval-leafed pondweed [3] = assay: Test Example 1: herbicidal activity, application before weed generation under submerged conditions (Table 16, symbol C); format: in vivo, oval-leafed pondweed (Monochoria vaginalis); details: 320 g/ha applied herbicide
Summary of the method: as §1

late watergrass [4] = assay: Test Example 2: herbicidal activity, application during weed generation under submerged conditions (Table 17, symbol A); format: in vivo, late watergrass (Echinochloa oryzicola); details: AAH 320 g/ha; application during weed generation, submerged conditions
Summary of the method: (§2)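 3-wk visual-criteria score after one water-surface dose. Emulsion formulation, water-diluted to set rate; applied at 1–2 leaf stage; alluvial soil, 4 cm standing water; seeds co-sown; greenhouse 25–30° C.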

Japanese bulrush [5] = assay: Test Example 2: herbicidal activity, application during weed generation under submerged conditions (Table 17, symbol B); format: in vivo, Japanese bulrush (Schoenoplectus juncoides); details: AAH 320 g/ha; application during weed generation, submerged conditions
Summary of the method: as §2

oval-leafed pondweed [6] = assay: Test Example 2: herbicidal activity, application during weed generation under submerged conditions (Table 17, symbol C); format: in vivo, oval-leafed pondweed (Monochoria vaginalis); details: AAH 320 g/ha; application during weed generation, submerged conditions
Summary of the method: as §2

barnyard grass [7] = assay: Test Example 3: herbicidal effect by foliage application, Wagner pot (Table 18, symbol H); format: in vivo, barnyard grass (Echinochloa crus-galli)
Summary of the method: (§3)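 Plants were sown in alluvial soil held under 0.1–0.5 cm standing water and grown 14 days in a greenhouse at 25–30 °C. An emulsifiable formulation, water-diluted to the set dose, was then sprayed onto the foliage, and effects were scored three weeks later using previously defined criteria.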

Chinese sprangletop = assay: Test Example 3: herbicidal effect by foliage application, Wagner pot (Table 18, symbol D); format: in vivo, chinese sprangletop (Leptochloa chinensis)
Summary of the method: as §3

rice flat sedge = assay: Test Example 3: herbicidal effect by foliage application, Wagner pot (Table 18, symbol E); format: in vivo, rice flat sedge (Cyperus iria)
Summary of the method: as §3

southern crabgrass [8] = assay: Test Example 4: herbicidal effect by soil treatment (Table 19, symbol F); format: in vivo, southern crabgrass (Digitaria ciliaris); details: amount of applied herbicide 320 g/ha
Summary of the method: (§4)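 Soil-surface application: an emulsion agent diluted with water to the predetermined dose is sprayed uniformly over seeds lying under roughly 1.5 cm of sterilized diluvial soil. Boxes stay in a greenhouse at 25° C. to 30° C. Three weeks later, each species is graded on previously defined criteria.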

green foxtail [9] = assay: Test Example 4: herbicidal effect by soil treatment (Table 19, symbol G); format: in vivo, green foxtail (Setaria viridis); details: amount of applied herbicide 320 g/ha
Summary of the method: as §4

barnyard grass [10] = assay: Test Example 4: herbicidal effect by soil treatment (Table 19, symbol H); format: in vivo, barnyard grass (Echinochloa crus-galli); details: amount of applied herbicide 320 g/ha
Summary of the method: as §4

wild oat [11] = assay: Test Example 4: herbicidal effect by soil treatment (Table 19, symbol I); format: in vivo, wild oat (Avena fatua); details: amount of applied herbicide 320 g/ha
Summary of the method: as §4

blackgrass [12] = assay: Test Example 4: herbicidal effect by soil treatment (Table 19, symbol J); format: in vivo, blackgrass (Alopecurus myosuroides); details: amount of applied herbicide 320 g/ha
Summary of the method: as §4

Italian ryegrass [13] = assay: Test Example 4: herbicidal effect by soil treatment (Table 19, symbol K); format: in vivo, Italian ryegrass (Lolium multiflorum); details: amount of applied herbicide 320 g/ha
Summary of the method: as §4

windgrass [14] = assay: Test Example 4: herbicidal effect by soil treatment (Table 19, symbol L); format: in vivo, windgrass (Apera spica-venti); details: amount of applied herbicide 320 g/ha
Summary of the method: as §4

velvetleaf [15] = assay: Test Example 4: herbicidal effect by soil treatment (Table 19, symbol M); format: in vivo, velvetleaf (Abutilon theophrasti); details: amount of applied herbicide 320 g/ha
Summary of the method: as §4

redroot pigweed = assay: Test Example 4: herbicidal effect by soil treatment (Table 19, symbol N); format: in vivo, redroot pigweed (Amaranthus retroflexus); details: amount of applied herbicide 320 g/ha
Summary of the method: as §4

lambsquarters [16] = assay: Test Example 4: herbicidal effect by soil treatment (Table 19, symbol O); format: in vivo, lambsquarters (Chenopodium album); details: amount of applied herbicide 320 g/ha
Summary of the method: as §4

chickweed = assay: Test Example 4: herbicidal effect by soil treatment (Table 19, symbol P); format: in vivo, common chickweed (Stellaria media); details: amount of applied herbicide 320 g/ha
Summary of the method: as §4

persian speedwell [17] = assay: Test Example 4: herbicidal effect by soil treatment (Table 19, symbol R); format: in vivo, Persian speedwell (Veronica persica); details: amount of applied herbicide 320 g/ha
Summary of the method: as §4

false cleavers = assay: Test Example 4: herbicidal effect by soil treatment (Table 19, symbol Q); format: in vivo, false cleavers (Galium spurium); details: amount of applied herbicide 320 g/ha
Text: [Test Example 4] Herbicidal Effect Test by Soil Treatment
Sterilized diluvial soil was placed in a plastic box having a length of 21 cm, a width of 13 cm, and a depth of 7 cm. The seeds of each of southern crabgrass, green foxtail, barnyard grass, wild oat, blackgrass, Italian ryegrass, windgrass, velvetleaf, redroot pigweed, lambsquarters, chickweed, false cleavers, persian speedwell, corn, soybean, rice, wheat, beet, and rapeseed were sowed in a spot-like manner and covered with the soil having a thickness of about 1.5 cm. Subsequently, the emulsion agent of the compound of the present invention prepared according to Formulation Example 2 was diluted with water so as to achieve a predetermined herbicide amount, and the diluted emulsion agent was uniformly applied to the surface of the soil with a small-sized spray. The plastic box was placed in a greenhouse at 25° C. to 30° C. for growth of the plants. Three weeks after the herbicide application, the effect of the herbicide on each plant was evaluated according to the criteria of Test Example 1.

southern crabgrass [18] = assay: Test Example 5: herbicidal effect by foliage application, plastic box (Table 20, symbol F); format: in vivo, southern crabgrass (Digitaria ciliaris); details: foliage application, 320 g/ha, three weeks after application
Summary of the method: (§5)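 Sow seeds spot-wise in sterilized diluvial soil; cover with ~1.5 cm soil. Grow 14 days in greenhouse, 25° C. to 30° C. Spray foliage with emulsion diluted to predetermined amount. Rate effect after 3 weeks.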

green foxtail [19] = assay: Test Example 5: herbicidal effect by foliage application, plastic box (Table 20, symbol G); format: in vivo, green foxtail (Setaria viridis); details: foliage application, 320 g/ha, three weeks after application
Summary of the method: as §5

barnyard grass [20] = assay: Test Example 5: herbicidal effect by foliage application, plastic box (Table 20, symbol H); format: in vivo, barnyard grass (Echinochloa crus-galli); details: foliage application, 320 g/ha, three weeks after application
Summary of the method: as §5

wild oat [21] = assay: Test Example 5: herbicidal effect by foliage application, plastic box (Table 20, symbol I); format: in vivo, wild oat (Avena fatua); details: foliage application, 320 g/ha, three weeks after application
Summary of the method: as §5

blackgrass [22] = assay: Test Example 5: herbicidal effect by foliage application, plastic box (Table 20, symbol J); format: in vivo, blackgrass (Alopecurus myosuroides); details: foliage application, 320 g/ha, three weeks after application
Summary of the method: as §5

Italian ryegrass [23] = assay: Test Example 5: herbicidal effect by foliage application, plastic box (Table 20, symbol K); format: in vivo, Italian ryegrass (Lolium multiflorum); details: foliage application, 320 g/ha, three weeks after application
Summary of the method: as §5

windgrass [24] = assay: Test Example 5: herbicidal effect by foliage application, plastic box (Table 20, symbol L); format: in vivo, windgrass (Apera spica-venti); details: foliage application, 320 g/ha, three weeks after application
Summary of the method: as §5

velvetleaf [25] = assay: Test Example 5: herbicidal effect by foliage application, plastic box (Table 20, symbol M); format: in vivo, velvetleaf (Abutilon theophrasti); details: foliage application, 320 g/ha, three weeks after application
Summary of the method: as §5

lambsquarters [26] = assay: Test Example 5: herbicidal effect by foliage application, plastic box (Table 20, symbol O); format: in vivo, lambsquarters (Chenopodium album); details: foliage application, 320 g/ha, three weeks after application
Summary of the method: as §5

persian speedwell [27] = assay: Test Example 5: herbicidal effect by foliage application, plastic box (Table 20, symbol R); format: in vivo, Persian speedwell (Veronica persica); details: foliage application, 320 g/ha, three weeks after application
Summary of the method: as §5

[28] = amount of applied herbicide 320 g/ha

CCCC(=O)Oc1c(C)nn(C)c(=O)c1-c1c(-c2ccc(C(F)(F)F)cc2F)sc2ccc(F)cc12 [2-355]
Herbicidal effect on A: late watergrass (grade 0-5) (late watergrass [1]): 4 (Herbicidal rate of 70% or more and less than 90%)
Herbicidal effect on B: Japanese bulrush (grade 0-5) (Japanese bulrush [2]): 3 (Herbicidal rate of 40% or more and less than 70%)
Herbicidal effect on C: oval-leafed pondweed (grade 0-5) (oval-leafed pondweed [3]): 0 (Herbicidal rate of 5% or less (almost no effect))
herbicidal effect rating, A: late watergrass (late watergrass [4]): 3 (Herbicidal rate of 40% or more and less than 70%)
herbicidal effect rating, B: Japanese bulrush (Japanese bulrush [5]): 3 (Herbicidal rate of 40% or more and less than 70%)
herbicidal effect rating, C: oval-leafed pondweed (oval-leafed pondweed [6]): 3 (Herbicidal rate of 40% or more and less than 70%)
herbicidal effect on H: barnyard grass (barnyard grass [7]; [28]): 5 (Herbicidal rate of 90% or more (almost completely withered))
herbicidal effect on D: Chinese sprangletop (Chinese sprangletop; [28]): 5 (Herbicidal rate of 90% or more (almost completely withered))
herbicidal effect on E: rice flat sedge (rice flat sedge; [28]): 5 (Herbicidal rate of 90% or more (almost completely withered))
herbicidal effect, F: southern crabgrass (southern crabgrass [8]): 0 (Herbicidal rate of 5% or less (almost no effect))
herbicidal effect, G: green foxtail (green foxtail [9]): 0 (Herbicidal rate of 5% or less (almost no effect))
herbicidal effect, H: barnyard grass (barnyard grass [10]): 0 (Herbicidal rate of 5% or less (almost no effect))
herbicidal effect, I: wild oat (wild oat [11]): 0 (Herbicidal rate of 5% or less (almost no effect))
herbicidal effect, J: blackgrass (blackgrass [12]): 0 (Herbicidal rate of 5% or less (almost no effect))
herbicidal effect, K: Italian ryegrass (Italian ryegrass [13]): 4 (Herbicidal rate of 70% or more and less than 90%)
herbicidal effect, L: windgrass (windgrass [14]): 3 (Herbicidal rate of 40% or more and less than 70%)
herbicidal effect, M: velvetleaf (velvetleaf [15]): 0 (Herbicidal rate of 5% or less (almost no effect))
herbicidal effect, N: redroot pigweed (redroot pigweed): 0 (Herbicidal rate of 5% or less (almost no effect))
herbicidal effect, O: lambsquarters (lambsquarters [16]): 3 (Herbicidal rate of 40% or more and less than 70%)
herbicidal effect, P: chickweed (chickweed): 3 (Herbicidal rate of 40% or more and less than 70%)
herbicidal effect, R: persian speedwell (persian speedwell [17]): 3 (Herbicidal rate of 40% or more and less than 70%)

Cc1nn(C)c(=O)c(-c2c(-c3ccc(Cl)cc3)sc3cc(F)c(F)cc23)c1O [5-082]
herbicidal effect on barnyard grass (H) (barnyard grass [7]; 320 g/ha): 5 (Herbicidal rate of 90% or more (almost completely withered))
herbicidal effect on Chinese sprangletop (D) (Chinese sprangletop; 320 g/ha): 4 (Herbicidal rate of 70% or more and less than 90%)
herbicidal effect on rice flat sedge (E) (rice flat sedge; 320 g/ha): 4 (Herbicidal rate of 70% or more and less than 90%)
F: southern crabgrass, herbicidal effect grade (southern crabgrass [8]): 0 (Herbicidal rate of 5% or less (almost no effect))
G: green foxtail, herbicidal effect grade (green foxtail [9]): 1 (Herbicidal rate of 5% or more and less than 20%)
H: barnyard grass, herbicidal effect grade (barnyard grass [10]): 0 (Herbicidal rate of 5% or less (almost no effect))
I: wild oat, herbicidal effect grade (wild oat [11]): 0 (Herbicidal rate of 5% or less (almost no effect))
J: blackgrass, herbicidal effect grade (blackgrass [12]): 0 (Herbicidal rate of 5% or less (almost no effect))
K: Italian ryegrass, herbicidal effect grade (Italian ryegrass [13]): 4 (Herbicidal rate of 70% or more and less than 90%)
L: windgrass, herbicidal effect grade (windgrass [14]): 4 (Herbicidal rate of 70% or more and less than 90%)
M: velvetleaf, herbicidal effect grade (velvetleaf [15]): 0 (Herbicidal rate of 5% or less (almost no effect))
N: redroot pigweed, herbicidal effect grade (redroot pigweed): 4 (Herbicidal rate of 70% or more and less than 90%)
O: lambsquarters, herbicidal effect grade (lambsquarters [16]): 3 (Herbicidal rate of 40% or more and less than 70%)
Q: false cleavers, herbicidal effect grade (false cleavers): 3 (Herbicidal rate of 40% or more and less than 70%)
herbicidal effect on southern crabgrass (F) (southern crabgrass [18]): 3 (Herbicidal rate of 40% or more and less than 70%)
herbicidal effect on green foxtail (G) (green foxtail [19]): 3 (Herbicidal rate of 40% or more and less than 70%)
herbicidal effect on barnyard grass (H) (barnyard grass [20]): 4 (Herbicidal rate of 70% or more and less than 90%)
herbicidal effect on wild oat (I) (wild oat [21]): 3 (Herbicidal rate of 40% or more and less than 70%)
herbicidal effect on blackgrass (J) (blackgrass [22]): 3 (Herbicidal rate of 40% or more and less than 70%)
herbicidal effect on Italian ryegrass (K) (Italian ryegrass [23]): 5 (Herbicidal rate of 90% or more (almost completely withered))
herbicidal effect on windgrass (L) (windgrass [24]): 5 (Herbicidal rate of 90% or more (almost completely withered))
herbicidal effect on velvetleaf (M) (velvetleaf [25]): 5 (Herbicidal rate of 90% or more (almost completely withered))
herbicidal effect on lambsquarters (O) (lambsquarters [26]): 5 (Herbicidal rate of 90% or more (almost completely withered))
herbicidal effect on persian speedwell (R) (persian speedwell [27]): 5 (Herbicidal rate of 90% or more (almost completely withered))
